Columns and labels:
[1] = biological target: T1, Histamine H3 receptor (Homo sapiens, UniProt Q9Y5N1); assay: Displacement of [125I]iodoproxyfan from human histamine H3 receptor expressed in CHO-K1 cells
[2] = organism: Homo sapiens; assay: Selectivity, ratio of Ki for human histaminee H4 receptor to Ki for human histamine H3 receptor
[3] = biological target: T2, Histamine H4 receptor (Homo sapiens, UniProt Q9H3N8); assay: Displacement of [3H]histamine from human histamine H4 receptor expressed in SF9 cells coexpressing Galphai2, Gbeta1gamma2
[4] = biological target: T1, Histamine H3 receptor; assay: Displacement of […]iodoproxyfan from human histamine H3 receptor expressed in HEK293 cells; type: cell-based
[5] = biological target: Histamine H3 receptor (Rattus norvegicus, UniProt Q9QYN8); assay: Displacement of [3H]histamine from histamine H3 receptor in rat cerebral cortex; type: tissue-based
[6] = biological target: T2, Histamine H4 receptor; assay: Displacement of [3H]histamine from human histamine H4 receptor expressed in HEK293 cells; type: cell-based

T1 sequence (Q9Y5N1 whole entry): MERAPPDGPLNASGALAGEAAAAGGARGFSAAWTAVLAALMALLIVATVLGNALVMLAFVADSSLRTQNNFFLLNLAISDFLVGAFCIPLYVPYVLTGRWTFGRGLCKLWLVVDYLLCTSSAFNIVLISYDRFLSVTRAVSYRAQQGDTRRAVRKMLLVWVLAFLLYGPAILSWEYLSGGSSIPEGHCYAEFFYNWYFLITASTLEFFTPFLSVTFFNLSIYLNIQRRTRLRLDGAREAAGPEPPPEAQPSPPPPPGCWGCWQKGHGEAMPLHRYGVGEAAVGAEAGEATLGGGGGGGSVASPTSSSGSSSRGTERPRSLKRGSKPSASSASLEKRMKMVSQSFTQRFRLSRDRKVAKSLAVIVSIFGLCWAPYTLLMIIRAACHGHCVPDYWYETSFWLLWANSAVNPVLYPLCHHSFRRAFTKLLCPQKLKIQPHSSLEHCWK
Histamine H3 receptor (Rattus norvegicus, UniProt Q9QYN8), sequence (Q9QYN8 whole entry): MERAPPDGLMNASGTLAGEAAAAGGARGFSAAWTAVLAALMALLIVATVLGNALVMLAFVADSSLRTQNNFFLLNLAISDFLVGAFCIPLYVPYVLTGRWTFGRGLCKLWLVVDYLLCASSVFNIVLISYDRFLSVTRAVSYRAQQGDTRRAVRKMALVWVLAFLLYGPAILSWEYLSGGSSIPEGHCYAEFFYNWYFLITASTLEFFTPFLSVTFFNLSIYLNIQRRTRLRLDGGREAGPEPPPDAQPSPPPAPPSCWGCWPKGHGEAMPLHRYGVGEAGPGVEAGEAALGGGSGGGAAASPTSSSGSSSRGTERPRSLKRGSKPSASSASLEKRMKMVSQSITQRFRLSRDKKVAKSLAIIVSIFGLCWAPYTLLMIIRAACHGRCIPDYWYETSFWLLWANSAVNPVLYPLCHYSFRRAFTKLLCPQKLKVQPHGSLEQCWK

Ki [1]	Ratio Ki [2]	Ki [3]	SMILES	further results
4.7 nM	25	118 nM	CC[C@H](C)CNC(=O)OCCCc1c[nH]cn1	
74 nM		1460 nM	CCCCC[C@H](C)NC(=O)OCCCc1cnc[nH]1	
19 nM		426 nM	CCCC[C@@H](C)NC(=O)OCCCc1cnc[nH]1	
42 nM			CCCC[C@H](C)NC(=O)OCCCc1cnc[nH]1	
			CCCCCC[C@@H](C)NC(=O)OCCCc1c[nH]cn1	Ki [4]: 28 nM
41 nM		636 nM	CCCCC[C@@H](C)NC(=O)OCCCc1cnc[nH]1	
12 nM	24	290 nM	CC[C@@H](C)NC(=O)OCCCc1c[nH]cn1	
31 nM			CC[C@H](C)NC(=O)OCCCc1c[nH]cn1	
15 nM			CCC[C@@H](C)NC(=O)OCCCc1cnc[nH]1	
			CCCCCC[C@H](C)NC(=O)OCCCc1c[nH]cn1	Ki [4]: 43 nM
	16		CCCCC[C@@H](C)NC(=O)OCCCc1c[nH]cn1	
	20		CCCCC[C@H](C)NC(=O)OCCCc1c[nH]cn1	
	22		CCCC[C@@H](C)NC(=O)OCCCc1c[nH]cn1	
49 nM			CCC(C)NC(=O)OCCCc1c[nH]cn1 (racemic)	
52 nM			CCCCCC(C)NC(=O)OCCCc1c[nH]cn1 (racemic)	
29 nM	24	695 nM	CCCCC(C)NC(=O)OCCCc1c[nH]cn1 (racemic)	
75 nM			CC(C)CCCC(C)NC(=O)OCCCc1cnc[nH]1 (racemic)	Ki [5]: 22 nM
37 nM		779 nM	CCCCC(CC)CNC(=O)OCCCc1cnc[nH]1 (racemic)	
91 nM			CCCCCCC(C)NC(=O)OCCCc1c[nH]cn1 (racemic)	
21 nM			CCCC(C)NC(=O)OCCCc1c[nH]cn1 (racemic)	
8.3 nM	20	162 nM	CCCC(C)CNC(=O)OCCCc1c[nH]cn1 (racemic)	
13 nM	9	123 nM	CCC(C)CCNC(=O)OCCCc1c[nH]cn1 (racemic)	
30 nM			CC(C)CCC(C)NC(=O)OCCCc1cnc[nH]1 (racemic)	
	21		CCCCC(CC)CNC(=O)OCCCc1c[nH]cn1 (racemic)	
			O=C(c1ccc(OCCCc2cnc[nH]2)cc1)C1CC1 [CIPROXIFAN]	Ki [6]: 612 nM
			NC(=NCc1ccc(Cl)cc1)SCCCc1cnc[nH]1 [CLOBENPROPIT]	Ki [6]: 4.3 nM
